Measurements published in patent US7709636B2, “Pyrazole sulfonylurea compound and herbicide” (Nissan Chemical Industries, Ltd., priority 2004, dated 2010).

Experiments:
Echinochloa crus-galli [1] = test: Herbicidal effect test in submerged condition by treatment before weed-generation (1); format: in vivo; settings: 0.64 g/a, water surface treated on day of sowing, 3 weeks after treatment
Source text: (§1) Herbicidal Effect Test in Submerged Condition by Treatment Before Weed-Generation (1)
(§2) After alluvial soil was placed in a styrol cup of 1/30000 are, water was poured therein and mixed, and adjusted to a submerged condition of water depth 4 cm. After seeds of Echinochloa crus-galli, Scirpus juncoides and Monochoria vaginalis were sown in the cup, rice seedlings at 2.5th leaf stage were transplanted. On the day when the seeds were sown, the wettable powder of the present invention prepared according to Formulation Example 1 was diluted with water so as to give a predetermined formulation amount, and the surface of the water was treated with the diluted wettable powder. The plants were grown by putting the cup in a green house at 25 to 30° C., and investigated on herbicidal effect against each weed 3 weeks after treatment with the herbicide according to the following criteria.
(§3) 5 Herbicidal rate 90% or more (almost complete death)
(§4) 4 Herbicidal rate 70% or more and less than 90%
(§5) 3 Herbicidal rate 40% or more and less than 70%
(§6) 2 Herbicidal rate 20% or more and less than 40%
(§7) 1 Herbicidal rate 5% or more and less than 20%
(§8) 0 Herbicidal rate 5% or less (little effect)

Monochoria vaginalis [2] = test: as above; format: in vivo; settings: 0.64 g/a, water surface treated on day of sowing, 3 weeks after treatment
Source text: as §1, §2, §3, §4, §5, §6, §7, §8

Scirpus juncoides [3] = test: as above; format: in vivo; settings: 0.64 g/a, water surface treated on day of sowing, 3 weeks after treatment
Source text: as §1, §2, §3, §4, §5, §6, §7, §8

Echinochloa crus-galli [4] = test: Herbicidal effect test in submerged condition by treatment during weed-growth stage (1); format: in vivo; settings: 0.64 g/a, treated at 1st to 2nd leaf stage, 3 weeks after treatment
Experimental: (§9) Herbicidal Effect Test in Submerged Condition by Treatment During Weed-Growth Stage (1) After alluvial soil was placed in a styrol cup of 1/30000 are, water was poured therein and mixed, and adjusted to a submerged condition of water depth 4 cm. After seeds of Echinochloa crus-galli, Scirpus juncoides and Monochoria vaginalis were sown in the cup, the plants were grown by putting the cup in a green house at 25 to 30° C. When Echinochloa crus-galli, Scirpus juncoides and Monochoria vaginalis reached 1st to 2nd leaf stage, the wettable powder of the present invention prepared according to Formulation Example 1 was diluted with water so as to give a predetermined formulation amount, and the surface of the water was treated with the diluted wettable powder. The herbicidal effect for each plant was investigated 3 weeks after treatment with the herbicide according to the criteria indicated in Test Example 1.

Monochoria vaginalis [5] = test: as above; format: in vivo; settings: 0.64 g/a, treated at 1st to 2nd leaf stage, 3 weeks after treatment
Experimental: as §9

Scirpus juncoides [6] = test: as above; format: in vivo; settings: 0.64 g/a, treated at 1st to 2nd leaf stage, 3 weeks after treatment
Experimental: as §9

Abutilon avicennae [7] = test: Herbicidal effect test by soil treatment; format: in vivo; settings: 1.6 g/a, 3 weeks after treatment
Source text: (§10) Herbicidal Effect Test by Soil Treatment
(§11) Sterilized diluvial soil was placed in a plastic box having a size of length 21 cm, width 13 cm and depth 7 cm, seeds Echinochloa crus-galli, Digitaria adscendes, Setaria viridis, Avena fatua, Black-grass, Abutilon avicennae, Ambrosia elatior, Amaranthus retroflexus, Chenopodium album, Polygonum blumei, Stellaria media, Zea mays (corn), Glycine max (soybean), Oryza sativa (rice), Triticum aestivum (wheat) and Beta vulgaris (beat) were sown interspatially, covered with about 1.5 cm of soil, and then the wettable powder of the present invention prepared according to Formulation Example 1 was diluted with water so as to give a predetermined formulation amount, and the surface of the soil was uniformly treated with the diluted wettable powder by use of a small-sized spray. The herbicidal effect for each plant was investigated 3 weeks after treatment with the herbicide according to the criteria indicated in Test Example 1.

Amaranthus retroflexus [8] = test: Herbicidal effect test by soil treatment; format: in vivo; settings: 1.6 g/a, 3 weeks after treatment
Source text: as §10, §11

Ambrosia elatior [9] = test: Herbicidal effect test by soil treatment; format: in vivo; settings: 1.6 g/a, 3 weeks after treatment
Source text: as §10, §11

Beta vulgaris (beet) [10] = test: Herbicidal effect test by soil treatment; format: in vivo; settings: 1.6 g/a, 3 weeks after treatment
Source text: as §10, §11

Chenopodium album [11] = test: Herbicidal effect test by soil treatment; format: in vivo; settings: 1.6 g/a, 3 weeks after treatment
Source text: as §10, §11

Digitaria adscendes [12] = test: Herbicidal effect test by soil treatment; format: in vivo; settings: 1.6 g/a, 3 weeks after treatment
Source text: as §10, §11

Echinochloa crus-galli [13] = test: Herbicidal effect test by soil treatment; format: in vivo; settings: 1.6 g/a, 3 weeks after treatment
Source text: as §10, §11

Polygonum blumei [14] = test: Herbicidal effect test by soil treatment; format: in vivo; settings: 1.6 g/a, 3 weeks after treatment
Source text: as §10, §11

Setaria viridis [15] = test: Herbicidal effect test by soil treatment; format: in vivo; settings: 1.6 g/a, 3 weeks after treatment
Source text: as §10, §11

Stellaria media [16] = test: Herbicidal effect test by soil treatment; format: in vivo; settings: 1.6 g/a, 3 weeks after treatment
Source text: as §10, §11

corn (Zea mays) [17] = test: Herbicidal effect test by soil treatment; format: in vivo; settings: 1.6 g/a, 3 weeks after treatment
Source text: as §10, §11

soybean (Glycine max) [18] = test: Herbicidal effect test by soil treatment; format: in vivo; settings: 1.6 g/a, 3 weeks after treatment
Source text: as §10, §11

direct sown rice [19] = test: Herbicidal effect test by soil treatment; format: in vivo, Oryza sativa; settings: 1.6 g/a, 3 weeks after treatment
Source text: as §10, §11

Abutilon avicennae [20] = test: Herbicidal effect test by foliage treatment; format: in vivo; settings: 1.6 g/a; foliage treatment after growth of 14 days; 3 weeks after treatment
Source text: (§12) Herbicidal Effect Test by Foliage Treatment
(§13) Sterilized diluvial soil was placed in a plastic box having a size of length 21 cm, width 13 cm and depth 7 cm, seeds of Echinochloa crus-galli, Digitaria adscendes, Setaria viridis, Avena fatua, Black-grass, Abutilon avicennae, Ambrosia elatior, Amaranthus retroflexus, Chenopodium album, Polygonum blumei, Stellaria media, Zea mays, Glycine max, Oryza sativa, Triticum aestivum and Beta vulgaris were sown interspatially, covered with about 1.5 cm of soil, and then the plants were grown by putting the box in a green house at 25 to 30° C. After growth of 14 days, the wettable powder of the present invention prepared according to Formulation Example 1 was diluted with water so as to give a predetermined formulation amount, and the foliage part was uniformly treated with the diluted wettable powder by use of a small-sized spray. The herbicidal effect for each plant was investigated 3 weeks after treatment with the herbicide according to the criteria indicated in Test Example 1.

Amaranthus retroflexus [21] = test: Herbicidal effect test by foliage treatment; format: in vivo; settings: 1.6 g/a; foliage treatment after growth of 14 days; 3 weeks after treatment
Source text: as §12, §13

Ambrosia elatior [22] = test: Herbicidal effect test by foliage treatment; format: in vivo; settings: 1.6 g/a; foliage treatment after growth of 14 days; 3 weeks after treatment
Source text: as §12, §13

Avena fatua = test: Herbicidal effect test by foliage treatment; format: in vivo; settings: 1.6 g/a; foliage treatment after growth of 14 days; 3 weeks after treatment
Source text: as §12, §13

Beta vulgaris (beet) [23] = test: Herbicidal effect test by foliage treatment; format: in vivo; settings: 1.6 g/a; foliage treatment after growth of 14 days; 3 weeks after treatment
Source text: as §12, §13

Black-grass = test: Herbicidal effect test by foliage treatment; format: in vivo; settings: 1.6 g/a; foliage treatment after growth of 14 days; 3 weeks after treatment
Source text: as §12, §13

Chenopodium album [24] = test: Herbicidal effect test by foliage treatment; format: in vivo; settings: 1.6 g/a; foliage treatment after growth of 14 days; 3 weeks after treatment
Source text: as §12, §13

Digitaria adscendes [25] = test: Herbicidal effect test by foliage treatment; format: in vivo; settings: 1.6 g/a; foliage treatment after growth of 14 days; 3 weeks after treatment
Source text: as §12, §13

Echinochloa crus-galli [26] = test: Herbicidal effect test by foliage treatment; format: in vivo; settings: 1.6 g/a; foliage treatment after growth of 14 days; 3 weeks after treatment
Source text: as §12, §13

Polygonum blumei [27] = test: Herbicidal effect test by foliage treatment; format: in vivo; settings: 1.6 g/a; foliage treatment after growth of 14 days; 3 weeks after treatment
Source text: as §12, §13

Setaria viridis [28] = test: Herbicidal effect test by foliage treatment; format: in vivo; settings: 1.6 g/a; foliage treatment after growth of 14 days; 3 weeks after treatment
Source text: as §12, §13

Stellaria media [29] = test: Herbicidal effect test by foliage treatment; format: in vivo; settings: 1.6 g/a; foliage treatment after growth of 14 days; 3 weeks after treatment
Source text: as §12, §13

[30] = test system: Triticum aestivum (wheat); test: Herbicidal effect test by foliage treatment; format: in vivo; settings: 1.6 g/a; foliage treatment after growth of 14 days; 3 weeks after treatment
Source text: as §12, §13

corn (Zea mays) [31] = test: Herbicidal effect test by foliage treatment; format: in vivo; settings: 1.6 g/a; foliage treatment after growth of 14 days; 3 weeks after treatment
Source text: as §12, §13

soybean (Glycine max) [32] = test: Herbicidal effect test by foliage treatment; format: in vivo; settings: 1.6 g/a; foliage treatment after growth of 14 days; 3 weeks after treatment
Source text: as §12, §13

direct sown rice [33] = test: Herbicidal effect test by foliage treatment; format: in vivo, Oryza sativa; settings: 1.6 g/a; foliage treatment after growth of 14 days; 3 weeks after treatment
Source text: as §12, §13

With `COc1cc(OC)nc(NC(=O)NS(=O)(=O)c2c(C3=NOCC(C)O3)c(C)nn2C)n1` (centres unmarked) [Compound 5, N-((4,6-dimethoxypyrimidin-2-yl)aminocarbonyl)-1,3-dimethyl-4-(5-methyl-5H,6H-1,4,2-dioxadin-3-yl)pyrazole-5-sulfonamide] the “herbicidal effect, A: Echinochloa crus-galli” value (Echinochloa crus-galli [1]) was 5 (Herbicidal rate 90% or more (almost complete death)), the “herbicidal effect, C: Monochoria vaginalis” value (Monochoria vaginalis [2]) was 5 (Herbicidal rate 90% or more (almost complete death)) and the “herbicidal effect, B: Scirpus juncoides” value (Scirpus juncoides [3]) was 5 (Herbicidal rate 90% or more (almost complete death)). The “herbicidal effect, A: Echinochloa crus-galli” value (Echinochloa crus-galli [4]) was 5 (Herbicidal rate 90% or more (almost complete death)), the “herbicidal effect, C: Monochoria vaginalis” value (Monochoria vaginalis [5]) was 5 (Herbicidal rate 90% or more (almost complete death)) and the “herbicidal effect, B: Scirpus juncoides” value (Scirpus juncoides [6]) was 5 (Herbicidal rate 90% or more (almost complete death)). The “herbicidal effect, H: Abutilon avicennae” value (Abutilon avicennae [7]) was 4 (Herbicidal rate 70% or more and less than 90%), the “herbicidal effect, J: Amaranthus retroflexus” value (Amaranthus retroflexus [8]) was 5 (Herbicidal rate 90% or more (almost complete death)) and the “herbicidal effect, I: Ambrosia elatior” value (Ambrosia elatior [9]) was 5 (Herbicidal rate 90% or more (almost complete death)). The “herbicidal effect, f: Beta vulgaris (beet)” value (Beta vulgaris (beet) [10]) was 5 (Herbicidal rate 90% or more (almost complete death)), the “herbicidal effect, K: Chenopodium album” value (Chenopodium album [11]) was 5 (Herbicidal rate 90% or more (almost complete death)) and the “herbicidal effect, D: Digitaria adscendes” value (Digitaria adscendes [12]) was 5 (Herbicidal rate 90% or more (almost complete death)). The “herbicidal effect, A: Echinochloa crus-galli” value (Echinochloa crus-galli [13]) was 5 (Herbicidal rate 90% or more (almost complete death)), the “herbicidal effect, L: Polygonum blumei” value (Polygonum blumei [14]) was 5 (Herbicidal rate 90% or more (almost complete death)) and the “herbicidal effect, E: Setaria viridis” value (Setaria viridis [15]) was 4 (Herbicidal rate 70% or more and less than 90%). For the same compound, the “herbicidal effect, M: Stellaria media” value (Stellaria media [16]) was 5 (Herbicidal rate 90% or more (almost complete death)), the “herbicidal effect, b: corn (Zea mays)” value (corn (Zea mays) [17]) was 5 (Herbicidal rate 90% or more (almost complete death)) and the “herbicidal effect, c: soybean (Glycine max)” value (soybean (Glycine max) [18]) was 5 (Herbicidal rate 90% or more (almost complete death)). For the same compound, the “herbicidal effect, d: direct sown rice” value (direct sown rice [19]) was 5 (Herbicidal rate 90% or more (almost complete death)), the “herbicidal effect, H: Abutilon avicennae” value (Abutilon avicennae [20]) was 5 (Herbicidal rate 90% or more (almost complete death)) and the “herbicidal effect, J: Amaranthus retroflexus” value (Amaranthus retroflexus [21]) was 5 (Herbicidal rate 90% or more (almost complete death)). For the same compound, the “herbicidal effect, I: Ambrosia elatior” value (Ambrosia elatior [22]) was 5 (Herbicidal rate 90% or more (almost complete death)), the “herbicidal effect, F: Avena fatua” value (Avena fatua) was 5 (Herbicidal rate 90% or more (almost complete death)) and the “herbicidal effect, f: Beta vulgaris (beet)” value (Beta vulgaris (beet) [23]) was 5 (Herbicidal rate 90% or more (almost complete death)). For the same compound, the “herbicidal effect, G: Black-grass” value (Black-grass) was 5 (Herbicidal rate 90% or more (almost complete death)), the “herbicidal effect, K: Chenopodium album” value (Chenopodium album [24]) was 5 (Herbicidal rate 90% or more (almost complete death)) and the “herbicidal effect, D: Digitaria adscendes” value (Digitaria adscendes [25]) was 5 (Herbicidal rate 90% or more (almost complete death)). For the same compound, the “herbicidal effect, A: Echinochloa crus-galli” value (Echinochloa crus-galli [26]) was 5 (Herbicidal rate 90% or more (almost complete death)), the “herbicidal effect, L: Polygonum blumei” value (Polygonum blumei [27]) was 5 (Herbicidal rate 90% or more (almost complete death)) and the “herbicidal effect, E: Setaria viridis” value (Setaria viridis [28]) was 4 (Herbicidal rate 70% or more and less than 90%). The “herbicidal effect, M: Stellaria media” value (Stellaria media [29]) was 5 (Herbicidal rate 90% or more (almost complete death)), the “herbicidal effect, e: Triticum aestivum (wheat)” value [30] was 5 (Herbicidal rate 90% or more (almost complete death)) and the “herbicidal effect, b: corn (Zea mays)” value (corn (Zea mays) [31]) was 5 (Herbicidal rate 90% or more (almost complete death)). The “herbicidal effect, c: soybean (Glycine max)” value (soybean (Glycine max) [32]) was 5 (Herbicidal rate 90% or more (almost complete death)) and the “herbicidal effect, d: direct sown rice” value (direct sown rice [33]) was 3 (Herbicidal rate 40% or more and less than 70%).
